Test results taken from patent US20150374784A1, “COMPOSITIONS AND METHODS FOR REDUCING GERM CELL DEATH” (Los Angeles Biomedical Research Institute at Harbor-UCLA …, priority 2014, published 2015).
“Also recorded” adds a separate entry of the source.

Key:
[1] = test system: phosphorylated-AMPK (p-AMPK); test: Immunohistochemistry of lung metastases: p-AMPK; type: in vivo, mouse; conditions: mean±SD; CP 200 mg/kg single IP; HNG 5 mg/kg daily IP 14 days
Method: (§1) Methods: Adult male mouse (n=5/group) were seeded with mouse B16 melanoma cells (100,000 cells/mouse) via tail vein on day 1. One week after melanoma cell inoculation, mice were treated either with a single intraperitoneal injection (IP) of CP (200 mg/kg), or daily IP injections of HNG (5 mg/kg), or both for 14 days. Mice were sacrificed at day 21 and lungs were fixed in formaldehyde. Immunohistochemistry was performed on lung metastases with antibodies against phosphorylated-AMPK (p-AMPK), p-4E-BP1 (downstream effector of mTOR) and Ki-67 antigen (a marker of cell proliferation).

mouse B16 melanoma cells = test: Number of metastatic lung tumors, B16 melanoma (Example 9); type: in vivo; conditions: day 21; CP 200 mg/kg single IP; HNG 5 mg/kg daily IP 14 days
Method: as §1

ovaries = type: in vivo; conditions: day 14; HNG 5 mg/kg/day IP; CP 100 mg/Kg single IP
Method: A mouse mammary cancer model was used which utilizes 4T1 cells transfected with the luciferase gene. Growth and size of 4T1 mammary tumors were detected by bioluminescence imaging (IVIS Luminia II, Perkin Elmer, Waltham, Mass.). Mice (n=5 to 7 per group) were inoculated with 1×10^6 4 T1 cells into the right third mammary gland, and 7 days later they were left untreated or treated with HNG (5 mg/kg/day IP), CP (100 mg/Kg single IP) or HNG+CP for 14 days. Animals were sacrificed and both ovaries were removed from each mouse on day 14 after the start of treatment. Serial 5-micrometer sections were made. Every 5th section was examined and the number of primordial, primary, and secondary follicles counted (Kim S Y, et al., 2013; Bristol-Gould S K, et al., 2006; Roti Roti E C, et al., 2012). In addition, TUNEL staining for apoptotic cells and oocytes was quantified (Perez G I, et al., 1997; Ben-Aharon I, et al., 2010).

male germ cells = type: in vivo; conditions: B16 tumor-bearing mice
Method: (§2) A total of 25 young adult mice (10-12 weeks) were randomly divided into 5 groups (n=5 per group). Five mice were used as control. Twenty mice were inoculated intravenously with B16 murine melanoma cells (2×10^5 cells/mouse). Among these 20 tumor-inoculated mice, 5 mice received no further treatment. After one week, the remaining 15 mice were divided into 3 groups and injected with: 1) HNG daily IP (5 mg/Kg body weight) for 2 weeks; 2) CP (200 mg/Kg body weight IP single injection); 3) combined CP with HNG treatment (same doses as above). All mice were sacrificed 3 weeks after tumor inoculation, and 2 weeks after HNG and/or CP treatment. The animals were sacrificed with 5% pentobarbital (200 mg/kg body weight) IP injection after which blood was collected from the right atrium of the heart. One of the testes from each mouse was immersed fixed in Bouin's solution, and the mice were perfused with saline and subsequently perfuse-fixed with 5% glutaraldehyde in 0.05 M cacodylate buffer (pH 7.4). The lungs were dissected out and post fixed in 5% glutaraldehyde solution for 24 hours and stored in cacodylate buffer at 4° C. for the subsequent tumor count (Lue, et al., 2010; Lue, et al., 2009).

[2] = test system: B16 murine melanoma cells; test: Metastatic lung tumors in mouse B16 melanoma model (Experiments 3 and 4); type: in vivo
Method: as §2
Experiment 3 was repeated after inoculation of B16 melanoma tumor at week 1 and then treated with the following treatment starting at week 2 (n=5 mice per group): 1). No treatment; 2). HNG IP injections 5 mg/Kg daily; 3) CP 200 mg/Kg single IP injection; 4) HNG 5 mg/Kg/day+CP; 5). HNG IP injections 15 mg/Kg daily; and 6). HNG 15 mg/Kg/day+CP. All animals were euthanized and perfused with 4% paraformaldehyde at the end of week 3. Lungs and testes were collected and processed as in experiment 3.
B16 melanoma tumors in the lung were quantified by counting the number of tumors on the surface of the lungs under stereomicroscopy (Collisson, et al., 2003; Craft, et al., 2005). The size of the tumor was measured using histomorphometry and expressed as average size of tumor. The appearance of the melanoma cells were reviewed and characterized by an expert pathologist.

4T1 cells = test: 4T1 mouse mammary cancer model, tumor size and weight; conditions: in vivo
Method: A mouse mammary cancer model was used which utilizes 4T1 cells transfected with the luciferase gene. Growth and size of 4T1 mammary tumors were detected by bioluminescence imaging (IVIS Luminia II, Perkin Elmer, Waltham, Mass.). Mice (n=5 to 7 per group) were inoculated with 1×10^6 4 T1 cells into the right third mammary gland, and 7 days later they were left untreated or treated with HNG (5 mg/kg/day IP), CP (100 mg/Kg single IP) or HNG+CP for 14 days. Bioluminescence imaging was conducted at days 7 and 12. Animals were sacrificed and tumors were removed on day 14 after the start of treatment. Mammary tumors were smaller in CP and CP+HNG groups compared to the untreated and HNG-treated animals (Data images not shown).

SH-SY5Y (neuroblastoma) = test: Autophagy induction in SH-SY5Y; type: cell-based
Excerpt: The increased level of LC3-II, a marker of autophagosome was examined by Western blot and immunocytochemistry. The increase of autophagosomes and autolysosomes in HEK293 cells stably expressing mRFP-GFP-LC3, a dual-tag reporter of autophagy, was examined following humanin treatment. In addition, the signaling pathways activated by humanin using a phospho-antibody array in SH-SY5Y cells was investigated. […] Both activation and suppression of autophagy are involved in cancer pathogenesis and treatment, depending on the context.

[3] = Experiment 4, vs non-treated, HNG at both 5 mg/kg BW and 15 mg/kg BW, CP 200 mg/Kg

Compound | percent p-AMPK positive cells in metastatic lung melanoma [1] [%] | decrease in number of metastatic lung tumors compared to non-treated mice (mouse B16 melanoma cells) [%] | ovarian follicles in representative sections (ovaries) | testis weight (male germ cells; 2 weeks after CP 200 mg/Kg single IP) | germ cell apoptosis (percent of seminiferous tubules containing apoptotic germ cells) (male germ cells; 2 weeks after treatment, CP 200 mg/Kg single IP, HNG 5 mg/Kg daily IP) | size of the melanoma metastasis on the surface of the lungs ([2]; Experiment 3, vs non-treated tumor-bearing mice) | number of metastatic tumors on the surface of the lungs ([2]; Experiment 3, vs non-treated tumor-bearing mice, HNG 5 mg/Kg daily IP 2 weeks, CP 200 mg/Kg single IP) | number of lung tumors [2, 3] | size of the lung tumors [2, 3] | histology of metastatic lung melanoma cells ([2]; HNG 5 mg/kg BW, CP, or both, monohydrate) | mammary tumor size (bioluminescence imaging) (4T1 cells) | autophagy (SH-SY5Y (neuroblastoma))
O=P1(N(CCCl)CCCl)NCCCO1 (stereo not drawn) [CP, cyclophosphamide monohydrate] | 11.3±15.6 | ~50 | have less secondary, but more atretic follicles | significantly decreased the testis weight | significantly increased germ cell apoptosis | decreased number of tumors but also tumor size | decreased number of tumors | significantly decreased both the number and size of the tumors | significantly decreased both the number and size of the tumors | decreased the number of metastatic melanoma cells; also recorded: induced minor differentiation of melanoma cells | smaller | 
MAPRGFSCLLLLTSEIDLPVKRRA [HN, 24-amino acid mitochondrial derived peptide] |  |  |  |  |  |  |  |  |  |  |  | induces autophagy
